Test results taken from ChEMBL document CHEMBL1201862, “PubChem BioAssay data set” (2004).
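These data come from cells grown in 96-well plates and exposed to compound for 48 hours at five concentrations. At the GI50, growth is halved.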 Calls of active or inactive are those of the source. Cut-off read from the data, not from the text of the source: active = GI50 up to about 1.1 µM and inactive = higher.

Legend:
Assay in all cases: NCI anticancer screen, dose series, 48 h
HCC 2998 = test system: HCC 2998
MDA-N = test system: MDA-N
IGROV-1 = test system: IGROV-1
SW-620 = test system: SW-620
SR = test system: SR
EKVX = test system: EKVX
HCT-15 = test system: HCT-15
NCI-H522 = test system: NCI-H522
UO-31 = test system: UO-31
CAKI-1 = test system: CAKI-1
MDA-MB-231 = test system: MDA-MB-231
HCT-116 = test system: HCT-116
Malme-3M = test system: Malme-3M
OVCAR-4 = test system: OVCAR-4
RXF 393 = test system: RXF 393
PC-3 = test system: PC-3
CCRF-CEM = test system: CCRF-CEM
BT-549 = test system: BT-549
RPMI-8226 = test system: RPMI-8226
UACC-62 = test system: UACC-62
MOLT-4 = test system: MOLT-4
UACC-257 = test system: UACC-257
OVCAR-3 = test system: OVCAR-3
SK-MEL-5 = test system: SK-MEL-5
TK-10 = test system: TK-10
LOX IMVI = test system: LOX IMVI
T47D = test system: T47D
U-251 = test system: U-251
KM12 = test system: KM12
MCF7 = test system: MCF7
NCI-H460 = test system: NCI-H460
ACHN = test system: ACHN
SK-MEL-28 = test system: SK-MEL-28
NCI/ADR-RES = test system: NCI/ADR-RES
OVCAR-8 = test system: OVCAR-8
OVCAR-5 = test system: OVCAR-5
SN12C = test system: SN12C
SNB-19 = test system: SNB-19
M14 = test system: M14
MDA-MB-435 = test system: MDA-MB-435
COLO 205 = test system: COLO 205
SK-MEL-2 = test system: SK-MEL-2
HT-29 = test system: HT-29
SF-295 = test system: SF-295
Hs-578T = test system: Hs-578T
HL-60 = test system: HL-60
DU-145 = test system: DU-145
K562 = test system: K562
A498 = test system: A498
NCI-H23 = test system: NCI-H23
786-0 = test system: 786-0
SK-OV-3 = test system: SK-OV-3
SF-539 = test system: SF-539
SF-268 = test system: SF-268
A549 = test system: A549
HOP-62 = test system: HOP-62
NCI-H226 = test system: NCI-H226
SNB-75 = test system: SNB-75
HOP-92 = test system: HOP-92

COC1=C(OC)C(=O)C(Cc2c(C)nc3sc(C)cn23)=C(C)C1=O
GI50 (HCC 2998): 29 µM (inactive)
GI50 (MDA-N): 18 µM (inactive)
GI50 (IGROV-1): 17.4 µM (inactive)
GI50 (SW-620): 25.5 µM (inactive)
GI50 (SR): 17.9 µM (inactive)
GI50 (EKVX): 16.7 µM (inactive)
GI50 (HCT-15): 26.1 µM
GI50 (NCI-H522): 17.4 µM (inactive)
GI50 (UO-31): 16.8 µM (inactive)
GI50 (CAKI-1): 20.4 µM (inactive)
GI50 (MDA-MB-231): 14.7 µM (inactive)
GI50 (HCT-116): 19.8 µM (inactive)
GI50 (Malme-3M): 14.9 µM (inactive)
GI50 (OVCAR-4): 10.9 µM (inactive)
GI50 (RXF 393): 20.9 µM (inactive)
GI50 (PC-3): 23.4 µM (inactive)
GI50 (CCRF-CEM): 7.13 µM (inactive)
GI50 (BT-549): 16.9 µM (inactive)
GI50 (RPMI-8226): 16.3 µM (inactive)
GI50 (UACC-62): 14 µM (inactive)
GI50 (MOLT-4): 1.7 µM (inactive)
GI50 (UACC-257): 12.8 µM (inactive)
GI50 (OVCAR-3): 17.5 µM (inactive)
GI50 (SK-MEL-5): 15.2 µM (inactive)
GI50 (TK-10): 18.5 µM (inactive)
GI50 (LOX IMVI): 17.4 µM (inactive)
GI50 (T47D): 34.1 µM (inactive)
GI50 (U-251): 19.8 µM (inactive)
GI50 (KM12): 26.3 µM (inactive)
GI50 (MCF7): 20.5 µM (inactive)
GI50 (NCI-H460): 20 µM (inactive)
GI50 (ACHN): 15.1 µM (inactive)
GI50 (SK-MEL-28): 16.1 µM (inactive)
GI50 (NCI/ADR-RES): 15.9 µM (inactive)
GI50 (OVCAR-8): 17.1 µM (inactive)
GI50 (OVCAR-5): 22.2 µM (inactive)
GI50 (SN12C): 16.9 µM (inactive)
GI50 (SNB-19): 19 µM (inactive)
GI50 (M14): 17 µM (inactive)
GI50 (MDA-MB-435): 17.9 µM (inactive)
GI50 (COLO 205): 19.3 µM (inactive)
GI50 (SK-MEL-2): 17.4 µM (inactive)
GI50 (HT-29): 20.2 µM (inactive)
GI50 (SF-295): 19.1 µM (inactive)
GI50 (Hs-578T): 23.9 µM (inactive)
GI50 (HL-60): 11.6 µM (inactive)
GI50 (DU-145): 20.2 µM (inactive)
GI50 (K562): 16.9 µM (inactive)
GI50 (A498): 33 µM (inactive)
GI50 (NCI-H23): 15 µM (inactive)
GI50 (786-0): 19.7 µM (inactive)
GI50 (SK-OV-3): 22 µM (inactive)
GI50 (SF-539): 17.4 µM (inactive)
GI50 (SF-268): 17.7 µM (inactive)
GI50 (A549): 19.5 µM (inactive)
GI50 (HOP-62): 18.5 µM (inactive)

CC1CC(NC2CCCCC2)=Nc2ccccc2N1Cc1ccccc1 (stereo not given)
GI50 (HCC 2998): 2.31 µM (inactive)
GI50 (MDA-N): 3.69 µM (inactive)
GI50 (IGROV-1): 1.91 µM (inactive)
GI50 (NCI-H226): 12.7 µM (inactive)
GI50 (SW-620): 6.37 µM (inactive)
GI50 (SR): 2.64 µM (inactive)
GI50 (EKVX): 8.22 µM (inactive)
GI50 (HCT-15): 5.33 µM
GI50 (NCI-H522): 3.03 µM (inactive)
GI50 (UO-31): 4.66 µM (inactive)
GI50 (CAKI-1): 5.46 µM (inactive)
GI50 (MDA-MB-231): 4.51 µM (inactive)
GI50 (HCT-116): 4.71 µM (inactive)
GI50 (Malme-3M): 1.49 µM (inactive)
GI50 (OVCAR-4): 5.78 µM (inactive)
GI50 (RXF 393): 2.36 µM (inactive)
GI50 (PC-3): 5.41 µM (inactive)
GI50 (CCRF-CEM): 4.13 µM (inactive)
GI50 (BT-549): 6.05 µM (inactive)
GI50 (RPMI-8226): 2.6 µM (inactive)
GI50 (UACC-62): 1.79 µM (inactive)
GI50 (MOLT-4): 3.55 µM (inactive)
GI50 (SNB-75): 0.417 µM (active)
GI50 (UACC-257): 3.45 µM (inactive)
GI50 (OVCAR-3): 6.92 µM (inactive)
GI50 (SK-MEL-5): 2.43 µM (inactive)
GI50 (TK-10): 12.3 µM (inactive)
GI50 (LOX IMVI): 2.11 µM (inactive)
GI50 (T47D): 4.18 µM (inactive)
GI50 (U-251): 7.16 µM (inactive)
GI50 (KM12): 4.75 µM (inactive)
GI50 (MCF7): 3.66 µM (inactive)
GI50 (NCI-H460): 3.37 µM (inactive)
GI50 (ACHN): 10.4 µM (inactive)
GI50 (SK-MEL-28): 4.38 µM (inactive)
GI50 (NCI/ADR-RES): 5.85 µM (inactive)
GI50 (OVCAR-8): 6.59 µM (inactive)
GI50 (OVCAR-5): 5.09 µM (inactive)
GI50 (SN12C): 7.85 µM (inactive)
GI50 (SNB-19): 11.3 µM (inactive)
GI50 (M14): 2.04 µM (inactive)
GI50 (MDA-MB-435): 3.38 µM (inactive)
GI50 (COLO 205): 4.35 µM (inactive)
GI50 (SK-MEL-2): 11.2 µM (inactive)
GI50 (HT-29): 2.82 µM (inactive)
GI50 (SF-295): 6.03 µM (inactive)
GI50 (Hs-578T): 3.95 µM (inactive)
GI50 (HL-60): 4.51 µM (inactive)
GI50 (DU-145): 4.66 µM (inactive)
GI50 (K562): 1.73 µM (inactive)
GI50 (A498): 2.05 µM (inactive)
GI50 (NCI-H23): 7.33 µM (inactive)
GI50 (786-0): 7.71 µM (inactive)
GI50 (SK-OV-3): 11.2 µM (inactive)
GI50 (SF-539): 5.62 µM (inactive)
GI50 (SF-268): 4.06 µM (inactive)
GI50 (A549): 4.43 µM (inactive)
GI50 (HOP-62): 7.03 µM (inactive)

CC(C(=O)N1c2ccccc2Sc2ccccc21)N1c2ccccc2Sc2ccccc21 (stereo not given)
GI50 (MDA-N): > 100 µM (inactive)
GI50 (IGROV-1): 79.8 µM (inactive)
GI50 (NCI-H226): 40.1 µM (inactive)
GI50 (SW-620): > 100 µM (inactive)
GI50 (SR): > 100 µM (inactive)
GI50 (EKVX): > 100 µM (inactive)
GI50 (HCT-15): > 100 µM
GI50 (UO-31): 70.1 µM (inactive)
GI50 (MDA-MB-231): > 100 µM (inactive)
GI50 (HCT-116): > 100 µM (inactive)
GI50 (Malme-3M): > 100 µM (inactive)
GI50 (OVCAR-4): > 100 µM (inactive)
GI50 (RXF 393): > 100 µM (inactive)
GI50 (PC-3): 97.5 µM (inactive)
GI50 (HOP-92): 26.2 µM (inactive)
GI50 (CCRF-CEM): 57.1 µM (inactive)
GI50 (BT-549): > 100 µM (inactive)
GI50 (RPMI-8226): > 100 µM (inactive)
GI50 (UACC-62): > 100 µM (inactive)
GI50 (MOLT-4): 42.9 µM (inactive)
GI50 (SNB-75): 96.4 µM (inactive)
GI50 (UACC-257): > 100 µM (inactive)
GI50 (OVCAR-3): 55 µM (inactive)
GI50 (SK-MEL-5): 57.5 µM (inactive)
GI50 (TK-10): > 100 µM (inactive)
GI50 (LOX IMVI): > 100 µM (inactive)
GI50 (T47D): 46.1 µM (inactive)
GI50 (U-251): 60 µM (inactive)
GI50 (KM12): 72.1 µM (inactive)
GI50 (MCF7): 42.9 µM (inactive)
GI50 (NCI-H460): > 100 µM (inactive)
GI50 (ACHN): > 100 µM (inactive)
GI50 (SK-MEL-28): > 100 µM (inactive)
GI50 (NCI/ADR-RES): > 100 µM (inactive)
GI50 (OVCAR-8): 97.1 µM (inactive)
GI50 (OVCAR-5): > 100 µM (inactive)
GI50 (SN12C): > 100 µM (inactive)
GI50 (SNB-19): > 100 µM (inactive)
GI50 (M14): > 100 µM (inactive)
GI50 (MDA-MB-435): > 100 µM (inactive)
GI50 (COLO 205): 85.7 µM (inactive)
GI50 (SK-MEL-2): > 100 µM (inactive)
GI50 (HT-29): 72.3 µM (inactive)
GI50 (SF-295): 98.4 µM (inactive)
GI50 (Hs-578T): > 100 µM (inactive)
GI50 (HL-60): 77.6 µM (inactive)
GI50 (DU-145): > 100 µM (inactive)
GI50 (K562): 84.1 µM (inactive)
GI50 (A498): 31.8 µM (inactive)
GI50 (NCI-H23): 74.8 µM (inactive)
GI50 (786-0): 88.1 µM (inactive)
GI50 (SK-OV-3): > 100 µM (inactive)
GI50 (SF-539): > 100 µM (inactive)
GI50 (SF-268): > 100 µM (inactive)
GI50 (A549): > 100 µM (inactive)
GI50 (HOP-62): > 100 µM (inactive)
